# Results published in US20240208954A1, “OXADIAZOLE COMPOUND, PREPARATION METHOD THEREFOR, PHARMACEUTICAL COMPOSITION AND USE THEREOF” (SHANGHAI INSTITUTE OF MATERIA MEDICA, CHINESE ACADEMY OF …, priority 2020, published 2024).
# Values joined by “and” are separate entries in the source; they are usually repeats but may differ in a detail not shown here. Equal entries are not always repeated. Where two headings read alike, the source gives them in different places.
# Test: Preliminary assessment of in vivo pharmacokinetics in rats
# Details: for AUC0-t: read-out: AUC0-t; for Vd: read-out: Vss; for concentration at 0.083 h / concentration at 0.25 h / concentration at 0.5 h / concentration at 1 h / concentration at 2 h / concentration at 4 h / concentration at 6 h / concentration at 8 h / concentration at 24 h: read-out: Plasma drug concentrations in rats; for MRT inf: read-out: MRT0-∞
# [1] = rat, in vivo, rats, intravenous 2 mg/kg, mean
# [2] = rat, plasma, iv, 2 mg/kg, rats, intravenous 2 mg/kg, individual animals 1-3
# [3] = rat, plasma, iv, 2 mg/kg, rats, intravenous 2 mg/kg, mean
structure (smiles),measurement,setting,value
"CC(C)Oc1ccc(-c2nc(-c3ccc(CN4CC(C(=O)O)C4)c4ccccc34)no2)cc1C#N.Cl [Compound A1, 1-((4-(5-(3-cyano-4-isopropoxyphenyl)-1,2,4-oxadiazol-3-yl)naphthalen-1-yl)methyl) azetidine-3-carboxylic acid hydrochloric acid]",Plasma drug concentrations in rats,"intragastric 20 mg/kg, 0.25 h, individual animals 4-6, listed as DC411151",1960 ng/mL and 696 ng/mL and 1150 ng/mL
same,Plasma drug concentrations in rats,"intragastric 20 mg/kg, 0.5 h, individual animals 4-6, listed as DC411151",1570 ng/mL and 2600 ng/mL
same,Plasma drug concentrations in rats,"intragastric 20 mg/kg, 1 h, individual animals 4-6, listed as DC411151",2070 ng/mL and 3070 ng/mL
same,Plasma drug concentrations in rats,"intragastric 20 mg/kg, 2 h, individual animals 4-6, listed as DC411151",1220 ng/mL and 2150 ng/mL
same,Plasma drug concentrations in rats,"intragastric 20 mg/kg, 4 h, individual animals 4-6, listed as DC411151",635 ng/mL and 841 ng/mL
same,Plasma drug concentrations in rats,"intragastric 20 mg/kg, 6 h, individual animals 4-6, listed as DC411151",350 ng/mL and 289 ng/mL
same,Plasma drug concentrations in rats,"intragastric 20 mg/kg, 8 h, individual animals 4-6, listed as DC411151",64.0 ng/mL and 57.0 ng/mL
same,Plasma drug concentrations in rats,"intragastric 20 mg/kg, 24 h, individual animals 4-6, listed as DC411151",2.49 ng/mL and 2.92 ng/mL
same,Plasma drug concentrations in rats,"intravenous 2 mg/kg, 0.083 h, individual animals 1-3, listed as DC411151, 2 mg/kg",3720 ng/mL and 3390 ng/mL
same,Plasma drug concentrations in rats,"intravenous 2 mg/kg, 0.25 h, individual animals 1-3, listed as DC411151, 2 mg/kg",2650 ng/mL and 2700 ng/mL
same,Plasma drug concentrations in rats,"intravenous 2 mg/kg, 0.5 h, individual animals 1-3, listed as DC411151, 2 mg/kg",1710 ng/mL and 1890 ng/mL
same,Plasma drug concentrations in rats,"intravenous 2 mg/kg, 1 h, individual animals 1-3, listed as DC411151, 2 mg/kg",1110 ng/mL and 951 ng/mL
same,Plasma drug concentrations in rats,"intravenous 2 mg/kg, 2 h, individual animals 1-3, listed as DC411151, 2 mg/kg",563 ng/mL and 528 ng/mL
same,Plasma drug concentrations in rats,"intravenous 2 mg/kg, 4 h, individual animals 1-3, listed as DC411151, 2 mg/kg",138 ng/mL and 172 ng/mL
same,Plasma drug concentrations in rats,"intravenous 2 mg/kg, 6 h, individual animals 1-3, listed as DC411151, 2 mg/kg",51.4 ng/mL and 47 ng/mL
same,Plasma drug concentrations in rats,"intravenous 2 mg/kg, 8 h, individual animals 1-3, listed as DC411151, 2 mg/kg",13.6 ng/mL and 16.9 ng/mL
same,Plasma drug concentrations in rats,"intravenous 2 mg/kg, 24 h, individual animals 1-3, listed as DC411151, 2 mg/kg",BQL and 1.94 ng/ml
same,Tmax,"rat, in vivo, po, rats, intragastric 20 mg/kg, individual animals 4-6, read-out: Tmax",1 h
same,AUC0-t,"rat, in vivo, po, rats, intragastric 20 mg/kg, mean",8780 ng·h/mL
same,Cmax,"rat, in vivo, po, rats, intragastric 20 mg/kg, mean, read-out: Cmax",2760 ng/mL
same,clearance,[1],8.66 mL/min/kg
same,half-life,[1],3.04 h
same,Vd,[1],0.758 L/kg
same,concentration at 0.083 h,"rat, plasma, iv, 2 mg/kg, intravenous 2 mg/kg, 0.083 h, individual animals 1-3",3940 ng/mL
same,concentration at 0.083 h,"rat, plasma, iv, 2 mg/kg, intravenous 2 mg/kg, 0.083 h, mean",3680 ng/mL
same,concentration at 0.25 h,"rat, plasma, iv, 2 mg/kg, intravenous 2 mg/kg, 0.25 h, individual animals 1-3",2950 ng/mL
same,concentration at 0.25 h,"rat, plasma, iv, 2 mg/kg, intravenous 2 mg/kg, 0.25 h, mean",2770 ng/mL
same,concentration at 0.5 h,"rat, plasma, iv, 2 mg/kg, intravenous 2 mg/kg, 0.5 h, individual animals 1-3",1570 ng/mL
same,concentration at 0.5 h,"rat, plasma, iv, 2 mg/kg, intravenous 2 mg/kg, 0.5 h, mean",1720 ng/mL
same,concentration at 1 h,"rat, plasma, iv, 2 mg/kg, intravenous 2 mg/kg, 1 h, individual animals 1-3",900 ng/mL
same,concentration at 1 h,"rat, plasma, iv, 2 mg/kg, intravenous 2 mg/kg, 1 h, mean",987 ng/mL
same,concentration at 2 h,"rat, plasma, iv, 2 mg/kg, intravenous 2 mg/kg, 2 h, individual animals 1-3",419 ng/mL
same,concentration at 2 h,"rat, plasma, iv, 2 mg/kg, intravenous 2 mg/kg, 2 h, mean",503 ng/mL
same,concentration at 4 h,"rat, plasma, iv, 2 mg/kg, intravenous 2 mg/kg, 4 h, individual animals 1-3",128 ng/mL
same,concentration at 4 h,"rat, plasma, iv, 2 mg/kg, intravenous 2 mg/kg, 4 h, mean",146 ng/mL
same,concentration at 6 h,"rat, plasma, iv, 2 mg/kg, intravenous 2 mg/kg, 6 h, individual animals 1-3",45.8 ng/mL
same,concentration at 6 h,"rat, plasma, iv, 2 mg/kg, intravenous 2 mg/kg, 6 h, mean",48.1 ng/mL
same,concentration at 8 h,"rat, plasma, iv, 2 mg/kg, intravenous 2 mg/kg, 8 h, individual animals 1-3",11.8 ng/mL
same,concentration at 8 h,"rat, plasma, iv, 2 mg/kg, intravenous 2 mg/kg, 8 h, mean",14.1 ng/mL
same,concentration at 24 h,"rat, plasma, iv, 2 mg/kg, intravenous 2 mg/kg, 24 h, individual animals 1-3",1.16 ng/mL
same,concentration at 24 h,"rat, plasma, iv, 2 mg/kg, intravenous 2 mg/kg, 24 h, mean",1.55 ng/mL
same,AUC(0-inf),[2],3570 ng·h/mL
same,clearance,[2],9.34 mL/min/kg
same,AUC0-t,[2],3550 ng·h/mL
same,MRT inf,[2],1.2 h
same,Vd,[2],0.672 L/kg
same,AUC(0-inf),[3],3860 ng·h/mL
same,AUC0-t,[3],3850 ng·h/mL
same,MRT inf,[3],1.47 h
same,concentration at 0.25 h,"rat, plasma, oral, 20 mg/kg, intragastric 20 mg/kg, 0.25 h, mean",1270 ng/mL
same,concentration at 0.5 h,"rat, plasma, oral, 20 mg/kg, intragastric 20 mg/kg, 0.5 h, individual animals 4-6",3130 ng/mL
